Values quoted from earlier work, collected in article PMC6347699 (Proceedings of the National Academy of Sciences of the …, 2019).
“Also recorded” adds a separate entry of the source. Ends that are not written are not given here.

How the values were obtained:
[1] = system: Gram-negative enterobacteria; settings: range of Gram-negative enterobacteria
[2] = harsh denaturing conditions

Row | Substance | inhibition of Eco RNAP (Eco RNAP) | mode of inhibition with respect to NTPs (Eco RNAP) | Ki (Eco RNAP; read-out: Ki, inhibition of Eco RNAP in in vitro transcription reactions) | antimicrobial properties [1] | stability of structure and activity [2] | inhibition of RNAP backtracking (RNAP backtracking)
1 | acinetodin [reference compound] | inhibit Eco RNAP | – | – | – | – | –
2 | klebsidin [reference compound] | inhibit Eco RNAP | – | – | – | – | –
3 | microcin J25 (GGAGHVPEYFVGIGTPISFYG; ends and bridges not checked; UniProt Q9X2V7 38-58, looked up) [MccJ25] | – | partially competitive; also recorded: partial competitive | ~1000 nM | antimicrobial properties against a range of Gram-negative enterobacteria | stable to harsh denaturing conditions | inhibit RNAP backtracking
